The subject of the test is 266295-075-R-J1-PDC spheroid viability. The test can be described thus: Anticancer human tumor 266295-075-R-J1-PDC patient-derived head and neck squamous carcinoma cell line growth inhibition [POLQ]. Particulars: spheroids with HUVEC and MSC; for viability, T/C: stronger effect = lower value. The protocol: Multicellular complex tumor spheroid response to Polymerase (POL) inhibitors (novobiocin, ART-558, RP6685) in combination with a variety of drugs and investigational agents in selected tumor cell lines
The POL inhibitors (novobiocin, ART-558, and RP6685) were evaluated both individually and in combination with standard of care and investigational anticancer small molecules within a complex spheroid model of solid tumors. . Complex spheroids include a stromal component modeled by human endothelial cells (HUVEC) and fibroblasts modeled by human mesenchymal stem cells (MSCs). The concentration ranges selected for each drug and investigational agent were based upon clinically achievable concentrations if the clinical Cmax of the agent was known.
Compounds. The drugs and investigational agents: novobiocin (NSC847541), ART-558 (NSC835418), RP-6685 (NSC848927), peposertib (NSC802822), ceralasertib (NSC780249), elimusertib (NSC800525), camonsertib (NSC841442), AZD-1390 (NSC803789), olaparib (NSC753686), talazoparib (NSC767125), rucaparib (NSC756644), sotorasib (NSC818433), MRTX-1133 (NSC836407), SN-38 (NSC673596), topotecan (NSC609699), epotoside (NSC141540), doxorubicin (NSC123127), gemcitabine (NSC613327), 5-fluorouracil (NSC19893), paclitaxel (NSC125973), vemurafenib (NSC761431), MSA-2 (NSC828583), SN-011 (NSC837082), adavosertib (NSC754352), prexasertib (NSC758257), carboplatin (NSC241240) and oxaliplatin (NSC266046), were obtained from the National Cancer Institute (NCI) Developmental Therapeutics Program Chemical Repository (21). The FDA-approved anticancer drug set is available from the Developmental Therapeutics Program at https://dtp.cancer.gov/organization/dscb/obtaining/. […] The stock solutions were prepared in dimethyl sulfoxide (DMSO, Sigma-Aldrich, St. Louis, MO, cat. D2650), except for the platinum compounds which were prepared in saline (Quality Biological, Gaithersburg, MD, cat. 114-055-101), at 800-fold the tested concentration and stored at -70 degrees C prior to their use. All drugs and investigational agents were tested over a range starting from a high concentration at or near the clinical Cmax and decreasing in half-log increments. If the clinical Cmax for an agent had not been determined, the highest concentration tested was 10 microM, except for SN-38, which was tested at a high concentration of 1 microM.
Cell Culture. All cells were maintained in an incubator at 37 degrees C and 5% CO2 with 95% humidity. The PDC lines were cultured according to standard operating procedures established by the NCI PDMR (https://pdmr.cancer.gov). Table 3 of the manuscript, lists the cell lines along with the number of the three cell types plated to form the mct-spheroids and media for tumor cell growth. After thawing, all PDC lines, except 997537-175-T-J1-PDC and 415267-285-R-J2-PDC, were cultured in Matrigel-coated flasks prepared with a working solution of 1X Ham's F-12 nutrient mix, without supplementation (Thermo Fisher Scientific, cat. 11765054), 100 U/mL penicillin-streptomycin (Thermo Fisher Scientific, cat. 15140122), and 2.5% Matrigel (Corning Inc., Corning, NY, cat. 354248) for the first three passages. The two PDC lines 997537-175-T-J1-PDC and 415267-285-R-J2-PDC were cultured on uncoated flasks. The 857933-349-R-J2-PDC line was cultured in 6C/Colon 1B media containing advanced DMEM/F-12 (Thermo Fisher Scientific, cat. 12634028), 10 mM HEPES (Thermo Fisher Scientific, cat. 15630080), 1X GlutaMAX supplement (Thermo Fisher Scientific, cat. 35050061), 0.1 mg/mL primocin (InvivoGen, San Diego, CA, cat. ant-pm-2), 10% defined fetal bovine serum, heat inactivated (HyClone Laboratories Inc., Logan, UT, cat. SH30070.03HI), 50% L-WRN conditioned media (ATCC, cat. CRL-3276), 1.25 mM N-Acetyl-L-cysteine (Sigma-Aldrich, cat. A9165), 10 mM nicotinamide (Sigma-Aldrich, cat. N0636), 1X B-27 supplement (Thermo Fisher Scientific, cat. 17504044), 1X N-2 supplement (Thermo Fisher Scientific, cat. […]

This note sets out measurements from PubChem BioAssay AID1963853 (Molecular Pharmacology Branch, DTP, NCI, 2024).

The structures appear in SMILES notation. Where “and” joins values, the source holds several entries; their conditions need not be identical. Equal values may be shown once.

The term IC50 denotes the concentration that gives 50% inhibition. Usually viability, T/C stands for the result in the treated group divided by that in the control group, in per cent.
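Further: spheroids exposed to compounds for seven days before readout.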

As for `CNCc1ccc(-c2[nH]c3cc(F)cc4c3c2CCNC4=O)cc1` + COC1C(OC(N)=O)C(O)C(Oc2ccc3c(O)c(NC(=O)c4ccc(O)c(CC=C(C)C)c4)c(=O)oc3c2C)OC1(C)C, the IC50 is, setting by setting: (curve of first compound, second compound 0.0316 µM) over 10 µM; (curve of first compound, second compound 0.1 µM) over 10 µM; (curve of first compound, second compound 0.316 µM) over 10 µM; (curve of first compound, second compound 1 µM) over 10 µM; (curve of first compound, second compound 3.16 µM) over 10 µM; (curve of first compound, second compound 10 µM) over 10 µM. Also, the viability, T/C runs as follows: (second compound 0.0316 µM, first compound 0.0316 µM) 95.1%; (second compound 0.0316 µM, first compound 0.1 µM) 79.6%; (second compound 0.0316 µM, first compound 0.316 µM) 86.8%; (second compound 0.0316 µM, first compound 1 µM) 78.3%; (second compound 0.0316 µM, first compound 3.16 µM) 83.8%; (second compound 0.0316 µM, first compound 10 µM) 98.2%. Moreover, the viability, T/C reads like this: (second compound 0.1 µM, first compound 0.0316 µM) 90.2%; (second compound 0.1 µM, first compound 0.1 µM) 85.1%; (second compound 0.1 µM, first compound 0.316 µM) 97.2%; (second compound 0.1 µM, first compound 1 µM) 86.9%; (second compound 0.1 µM, first compound 3.16 µM) 91.3%; (second compound 0.1 µM, first compound 10 µM) 99%. The viability, T/C reads like this: (second compound 0.316 µM, first compound 0.0316 µM) 111%; (second compound 0.316 µM, first compound 0.1 µM) 83.3%; (second compound 0.316 µM, first compound 0.316 µM) 93.1%; (second compound 0.316 µM, first compound 1 µM) 91.5%; (second compound 0.316 µM, first compound 3.16 µM) 108%; (second compound 0.316 µM, first compound 10 µM) 114%. Also, the viability, T/C (second compound 1 µM, first compound 0.0316 µM) is 92.8%; the viability, T/C (second compound 1 µM, first compound 0.1 µM) was 92.4%; the viability, T/C (second compound 1 µM, first compound 0.316 µM) is 90.5%; the viability, T/C (second compound 1 µM, first compound 1 µM) was 83.7%; the viability, T/C (second compound 1 µM, first compound 3.16 µM) was 107%; the viability, T/C (second compound 1 µM, first compound 10 µM) was 105%. The viability, T/C reads like this: (second compound 3.16 µM, first compound 0.0316 µM) 97.7%; (second compound 3.16 µM, first compound 0.1 µM) 85.5%; (second compound 3.16 µM, first compound 0.316 µM) 92.1%; (second compound 3.16 µM, first compound 1 µM) 81%; (second compound 3.16 µM, first compound 3.16 µM) 108%; (second compound 3.16 µM, first compound 10 µM) 115%. The viability, T/C is 94.2% (second compound 10 µM, first compound 0.0316 µM); 82.5% (second compound 10 µM, first compound 0.1 µM); 96.7% (second compound 10 µM, first compound 0.316 µM); 101% (second compound 10 µM, first compound 1 µM); 113% (second compound 10 µM, first compound 3.16 µM); 105% (second compound 10 µM, first compound 10 µM).
In the case of `Nc1ccn(C2OC(CO)C(O)C2(F)F)c(=O)n1` (stereo unspecified), the viability, T/C reads like this: (compound 0.0316 µM) 85.5% and 98.5% and 105%; (compound 0.1 µM) 81.7% and 117% and 83.4%; (compound 0.316 µM) 81.2% and 85.9% and 88.4%; (compound 1 µM) 64.9% and 81.8% and 83.7%; (compound 3.16 µM) 84.6% and 85.2% and 85.7%; (compound 10 µM) 75.2% and 82.7% and 85.4%. Moreover, for the setting “curve of compound”, the IC50 is over 10 µM.
Consider `COc1cc(C2c3cc4c(cc3C(OC3OC5COC(C)OC5C(O)C3O)C3COC(=O)C23)OCO4)cc(OC)c1O` (stereo unspecified), for which the viability, T/C runs as follows: (compound 0.0316 µM) 84.2% and 123% and 88.1%; (compound 0.1 µM) 80.5% and 94.5% and 116%; (compound 0.316 µM) 92.3% and 110% and 112%; (compound 1 µM) 77.7% and 88% and 98.4%; (compound 3.16 µM) 79.7% and 84.9% and 93.1%; (compound 10 µM) 72.6% and 84.4% and 82.6%. The IC50 (curve of compound) was over 10 µM.
